Experimental data from patent US7625696B2, “Screening method” (Takeda Pharmaceutical Company Limited, priority 2003, dated 2009).

Assays:
human GPR30 = molecular target: T1, human GPR30 (Homo sapiens, UniProt Q99527, P21A/Q20H); assay: Intracellular calcium ion level-increasing activity using FLIPR, human GPR30 cells; assay type: cell-based; conditions: human GPR30-expressed CHO cells, Fluo 3-AM, up to 100 μM (FIGS. 1-3, 7)
T1 construct: expressed in transfected cells; host or cells: CHO/dhfr- cells (ATCC), clone #19
Excerpt: (§1) The cDNA (SEQ ID NO: 5) for human GPR30 was cloned by known PCR techniques to incorporate the cDNA into pAKKO1.11H expression vector (Biochemica et Biophysica Acta, 1219 (1994) 251-259). The structure of plasmid was verified by restriction enzyme digestion and sequencing analysis and a correctly constructed plasmid was used as CHO cell expression plasmid pAK-hGPR30.
This plasmid pAK-hGPR30 was transfected to CHO/dhfr− cells (American Type Culture Collection) by electroporation. First, plasmid pAK-hGPR30 was digested with restriction enzyme Ahd I. A cuvette for electroporation received 5×10^6 CHO/dhfr− cells suspended in 500 μl of PBS and 5 μg of plasmid DNA dissolved in 10 μl of TE buffer. The mixture was settled on ice for 5 minutes and subjected to electroporation under conditions of […] and 960 μF. After settling on ice for 5 minutes, the total volume of CHO/dhfr− cells were plated in a T75 flask and incubated in nucleic acid-containing MEMalpha medium (Invitrogen, Inc.) supplemented with 10% fetal bovine serum (BIO WHITTAKER, Inc.) at 37° C. in 5% carbon dioxide for one day. The cells were dispersed by trypsin treatment, recovered from the flask and plated in a 96-well plate by 200 counts or 500 counts per well. Incubation was initiated in nucleic acid-free MEMalpha medium (Invitrogen, Inc.) supplemented with 10% dialyzed fetal bovine serum (JRH BIOSCIENCES, Inc.) and 50 μg/ml gentamicin at 37° C. in 5% carbon dioxide. The plasmid-transfected transformants of CHO cells grew in the medium but the non-transfected cells gradually died. On Days 8 to 10 after the incubation, one colony that kept growing in one well of the 96-well plate were isolated and approximately 48 colonies of the transformants of CHO cells were selected. From each cell selected, RNA was recovered using a commercially available kit for RNA isolation. Subsequently, transformant CHO cell #19 clone highly expressing human GPR30 was selected by known TaqMan RT-PCR (hereinafter briefly referred to as human GPR30 cell). […]

rat GPR30 = molecular target: T2, rat GPR30 (Rattus norvegicus, UniProt O08878, S320N); assay: Intracellular calcium ion level-increasing activity using FLIPR, rat GPR30 cells; assay type: cell-based; conditions: rat GPR30-expressed CHO cells, Fluo 3-AM, up to 100 μM (FIGS. 4-6, 8)
T2 construct: expressed in transfected cells; host or cells: CHO/dhfr- cells (ATCC), clone #6
T2 sequence (O08878 1-375 S320N): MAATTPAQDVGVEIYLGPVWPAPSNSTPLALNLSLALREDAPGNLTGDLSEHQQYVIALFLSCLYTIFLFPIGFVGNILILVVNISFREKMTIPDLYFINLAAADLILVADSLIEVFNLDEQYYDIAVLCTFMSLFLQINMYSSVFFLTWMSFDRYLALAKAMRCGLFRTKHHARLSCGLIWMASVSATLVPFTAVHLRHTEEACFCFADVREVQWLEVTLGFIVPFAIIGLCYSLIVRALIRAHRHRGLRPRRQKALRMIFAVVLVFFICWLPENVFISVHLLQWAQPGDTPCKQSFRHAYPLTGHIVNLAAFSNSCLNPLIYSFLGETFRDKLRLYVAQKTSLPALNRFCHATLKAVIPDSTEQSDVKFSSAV
Excerpt: as §1, with “6)” for “5)”, “rat” for “human”, “pAK-rGPR30.” for “pAK-hGPR30.”
In accordance with the procedures described in REFERENCE EXAMPLE 1, this plasmid pAK-rGPR30 was transfected to CHO/dhfr− cells (American Type Culture Collection) by electroporation and transformant CHO cell #6 clone highly expressing rat GPR30 was selected was selected (hereinafter briefly referred to as rat GPR30 cell).
(§2) The human GPR30 and rat GPR30 cells obtained in REFERENCE EXAMPLES above were suspended in medium (10% dFBS-DMEM) in 15×10^4 cells/ml, respectively. A 200 μl aliquot of the suspension was plated in each well of a 96-well plate (Black plate clear bottom, Coster, Inc.) for FLIPR, using an 8 channel pipette (3.0×10^4 cells/200 μl/well), and cultured at 37° C. overnight in a 5% CO2 incubator, which was provided for use (hereinafter referred to as the cell plate). Then, 20 ml of H/HBSS (9.8 g of Nissui HANKS 2 (Nissui Seiyaku Co., Ltd.), 0.35 g of sodium hydrogencarbonate, 4.77 g of HEPES; after adjusting the pH to 7.4 with 6 M sodium hydroxide solution, sterilization through a filter followed), 200 μl of 250 mM Probenecid and 200 μl of fetal bovine serum (FBS) were mixed. […]
(§3) All trans-retinol, all trans-retinal or 4-HPR (4-hydroxyphenylretinamide) was added to and diluted with 150 μl of H/HBSS containing 2.5 mM Probenecid and 0.1% CHAPS or H/HBSS containing 2.5 mM Probenecid, 0.1% CHAPS and 0.2% BSA; the dilution was transferred to a 96-well plate (V-Bottom Plate, Coster, Inc.) for FLIPR (hereinafter, the sample plate). […] Changes in fluorescence intensity were measured with passage of time to determine the intracellular calcium ion level-increasing activities.

various cancer cells = conditions: J. Biol. Chem. 271 (37), 22441-22446, 1996; cited from earlier work
nuclear receptor PAR = conditions: J. Biol. Chem. 271 (37), 22441-22446, 1996; cited from earlier work
GPR30 = assay: Intracellular calcium increase in GPR30-expressed CHO cells (summary statement); assay type: cell-based; conditions: stimulation with the compound
Method: as §2, §3

T1 sequence (Q99527 whole entry Q20H/P21A): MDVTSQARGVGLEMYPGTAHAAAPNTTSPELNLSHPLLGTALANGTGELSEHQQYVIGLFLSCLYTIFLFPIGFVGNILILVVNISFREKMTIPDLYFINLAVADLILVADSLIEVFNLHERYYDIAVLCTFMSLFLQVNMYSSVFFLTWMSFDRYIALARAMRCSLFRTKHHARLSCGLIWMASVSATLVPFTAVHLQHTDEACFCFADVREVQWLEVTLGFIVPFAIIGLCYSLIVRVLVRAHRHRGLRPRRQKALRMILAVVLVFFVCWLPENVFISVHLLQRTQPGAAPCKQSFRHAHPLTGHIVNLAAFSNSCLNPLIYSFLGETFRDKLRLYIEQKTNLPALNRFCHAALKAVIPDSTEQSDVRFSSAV

| Structure (SMILES) | increase in the intracellular calcium ion concentration (change in fluorescence intensity) (human GPR30) | increase in the intracellular calcium ion concentration (change in fluorescence intensity) (rat GPR30) | apoptosis of various cancer cells (various cancer cells) | agonist for nuclear receptor (nuclear receptor PAR) | intracellular calcium in the GPR30-expressed CHO cells (GPR30) |
| --- | --- | --- | --- | --- | --- |
| CC1=C(/C=C/C(C)=C/C=C/C(C)=C/C=O)C(C)(C)CCC1 [all trans-retinal] | induced an increase in the intracellular calcium ion concentration in a manner dependent on the concentration | induced an increase in the intracellular calcium ion concentration in a manner dependent on the concentration |  |  |  |
| CC1=C(/C=C/C(C)=C/C=C/C(C)=C/C(=O)Nc2ccc(O)cc2)C(C)(C)CCC1 [4-HPR, 4-hydroxyphenylretinamide] | induced an increase in the intracellular calcium ion concentration in a manner dependent on the concentration | induced an increase in the intracellular calcium ion concentration in a manner dependent on the concentration | induces apoptosis of various cancer cells | is an agonist for nuclear receptor PAR | specifically increased |
| CC1=C(/C=C/C(C)=C/C=C/C(C)=C/CO)C(C)(C)CCC1 [all trans-retinol] | induced an increase in the intracellular calcium ion concentration in a manner dependent on the concentration | induced an increase in the intracellular calcium ion concentration in a manner dependent on the concentration |  |  | specifically increased |
